Results as given in patent US20240400572A1, “COMPOUNDS AND METHODS FOR TREATING CANCERS THAT ARE MGMT DEFICIENT REGARDLESS OF MMR STATUS” (Yale University, priority 2021, published 2024).
Structures can show the parent of a compound that is named as a salt.

How the values were obtained:
Assay in all cases: Anticancer activity towards LN229 human brain glioblastoma cells (nuclei count after 120 hours)
Type in all cases: cell-based
Settings in all cases: LN-229, LN229 quad cells, 200 μM to 0.1 uM
LN229 MGMT− MMR+ cells = system: LN229 MGMT− MMR+ cells
Procedure: (§1) Exemplary compounds were evaluated for activity against LN229 human brain glioblastoma cells. Experimental procedures and results are provided elsewhere herein.
(§2) LN229 quad cells were maintained in Dulbecco's Modified Eagle Medium (DMEM) supplemented with 10% fetal bovine serum. Cells were plated into sterile black with glass bottom 384-well plates (Cellvis) at a concentration of 1,000 cells/well (20 μL total volume) using a MultiDrop (Thermo Fisher). Then, assay plates were centrifuged at 300 rpm for 2 seconds and incubated overnight in a 37° C. 5% CO2 incubator. Compounds were prepared as 100 mM stocks in DMSO and stored protected from light at −20′C until use. Prior to compound addition, the stock solutions of compound were diluted two-fold serially in DMSO from 100 mM down to 0.05 mM in a 384-well Source plate. Vehicle control wells containing DMSO and positive control wells containing 10 mM bortezomib were also added to the Source plate. An aliquot in the amount of 40 nL of compound stock solution or DMSO vehicle was transferred from the source plate to the cell assay plate using an Echo Acoustic dispense (Beckman). Three replicate dilution curves of each compound were run on each assay plate. An aliquot in the amount of 120 nL of a 10 mM bortezomib solution was transferred to the positive control wells resulting in a final concentration of 60 μM. The final concentration of compounds ranged from 200 μM to 0.1 uM (12-point, 2-fold dilution dose response curve), and the final DMSO concentration was 0.2%.
(§3) Assay plates were centrifuged at 500 rpm for 2 seconds and incubated for 120 hours at 37° C. in a humidified 5% CO2 incubator. Following incubation, cells were fixed with 4% paraformaldehyde and stained with DAPI for nuclei visualization. The images were acquired on the InCell 2200 high content imager (GE, now […]), and quantified using InCell Analyzer image analysis software. Z prime factor, signal-to-background and coefficient of variation were calculated for each assays plate using mean and standard deviation values of the negative (vehicle) and positive (bortezomib) control wells to ensure assay robustness. Raw cell count data for test compounds was normalized to percent viability relative to the DMSO vehicle control. Data was plotted in GraphPad Prism using a variable slope 4-parameter fit.

LN229 MGMT− MMR− cells = system: LN229 MGMT− MMR− cells
Procedure: as §1, §2, §3

LN229 MGMT+ MMR− cells = system: LN229 MGMT+ MMR− cells
Procedure: as §1, §2, §3

LN229 MGMT+ MMR+ cells = system: LN229 MGMT+ MMR+ cells
Procedure: as §1, §2, §3

| Structure (SMILES) | IC50 (LN229 MGMT− MMR+ cells) | IC50 (LN229 MGMT− MMR− cells) | IC50 (LN229 MGMT+ MMR− cells) | IC50 (LN229 MGMT+ MMR+ cells) |
| --- | --- | --- | --- | --- |
| CCNC(=O)c1ncn2c(=O)n(CCF)nnc12 [Compound I-2, N-ethyl-3-(2-fluoroethyl)-4-oxo-3H,4H-imidazo[4,3-d][1,2,3,5]tetrazine-8-carboxamide] | 10 to 20 µM | < 10 µM | > 80 µM | > 80 µM |
| O=C(NCC(F)(F)F)c1ncn2c(=O)n(CCF)nnc12 [Compound I-3, 3-(2-fluoroethyl)-4-oxo-N-(2,2,2-trifluoroethyl)-3H,4H-imidazo[4,3-d][1,2,3,5]tetrazine-carboxamide] | < 10 µM | < 10 µM | > 80 µM | > 80 µM |
| O=C(NC1CC1)c1ncn2c(=O)n(CCF)nnc12 [Compound I-4, N-cyclopropyl-3-(2-fluoroethyl)-4-oxo-3H,4H-imidazo[4,3-d][1,2,3,5]tetrazine-8-carboxamide] | 10 to 20 µM | < 10 µM | > 80 µM | > 80 µM |
| O=C(NC1CCC1)c1ncn2c(=O)n(CCF)nnc12 [Compound I-5, N-cyclobutyl-3-(2-fluoroethyl)-4-oxo-3H,4H-imidazo[4,3-d][1,2,3,5]tetrazine-8-carboxamide] | 10 to 20 µM | < 10 µM | > 80 µM | > 80 µM |
| CN(C)C(=O)c1ncn2c(=O)n(CCF)nnc12 [Compound I-6, 3-(2-fluoroethyl)-N,N-dimethyl-4-oxo-3H,4H-imidazo[4,3-d][1,2,3,5]tetrazine-8-carboxamide] | 20 to 50 µM | 10 to 20 µM | > 80 µM | > 80 µM |
| O=C(Nc1nccs1)c1ncn2c(=O)n(CCF)nnc12 [Compound I-7, 3-(2-fluoroethyl)-4-oxo-N-(1,3-thiazol-2-yl)-3H,4H-imidazo[4,3-d][1,2,3,5]tetrazine-8-carboxamide] | < 10 µM | < 10 µM | < 10 µM | < 10 µM |
| O=C(Nc1ccccn1)c1ncn2c(=O)n(CCF)nnc12 [Compound I-8, 3-(2-fluoroethyl)-4-oxo-N-(pyridin-2-yl)-3H,4H-imidazo[4,3-d][1,2,3,5]tetrazine-8-carboxamide] | 10 to 20 µM | < 10 µM | > 80 µM | > 80 µM |
| O=C(c1ncn2c(=O)n(CCF)nnc12)N1CCC1 [Compound I-9, 8-(azetidine-1-carbonyl)-3-(2-fluoroethyl)-3H,4H-imidazo[4,3-d][1,2,3,5]tetrazin-4-one] | 10 to 20 µM | < 10 µM | > 80 µM | > 80 µM |
| O=C(c1ncn2c(=O)n(CCF)nnc12)N1CCCC1 [Compound I-10, 3-(2-fluoroethyl)-8-(pyrrolidine-1-carbonyl)-3H,4H-imidazo[4,3-d][1,2,3,5]tetrazin-4-one] | 20 to 50 µM | < 10 µM | > 80 µM | > 80 µM |
| CN(C)CCNC(=O)c1ncn2c(=O)n(CCF)nnc12 [Compound I-12, N-[2-(dimethylamino)ethyl]-3-(2-fluoroethyl)-4-oxo-3H,4H-imidazo[4,3-d][1,2,3,5]tetrazine-8-carboxamide hydrochloride] | < 10 µM | < 10 µM | > 80 µM | > 80 µM |
| CCCN(CCC)C(=O)c1ncn2c(=O)n(CCF)nnc12 [Compound I-13, 3-(2-fluoroethyl)-4-oxo-N,N-dipropyl-3H,4H-imidazo[4,3-d][1,2,3,5]tetrazine-8-carboxamide] | 20 to 50 µM | 10 to 20 µM | 20 to 50 µM | 20 to 50 µM |
| CCN(C)C(=O)c1ncn2c(=O)n(CCF)nnc12 [Compound I-14, N-ethyl-3-(2-fluoroethyl)-N-methyl-4-oxo-3H,4H-imidazo[4,3-d][1,2,3,5]tetrazine-8-carboxamide] | 20 to 50 µM | 10 to 20 µM | > 80 µM | > 80 µM |
| CCN(CC)C(=O)c1ncn2c(=O)n(CCF)nnc12 [Compound I-15, N,N-diethyl-3-(2-fluoroethyl)-4-oxo-3H,4H-imidazo[4,3-d][1,2,3,5]tetrazine-8-carboxamide] | 50 to 80 µM | 10 to 20 µM | > 80 µM | > 80 µM |
| CCCNC(=O)c1ncn2c(=O)n(CCF)nnc12 [Compound I-16, 3-(2-fluoroethyl)-4-oxo-N-propyl-3H,4H-imidazo[4,3-d][1,2,3,5]tetrazine-8-carboxamide] | 10 to 20 µM | < 10 µM | > 80 µM | > 80 µM |
| CCCN(C)C(=O)c1ncn2c(=O)n(CCF)nnc12 [Compound I-17, 3-(2-fluoroethyl)-N-methyl-4-oxo-N-propyl-3H,4H-imidazo[4,3-d][1,2,3,5]tetrazine-8-carboxamide] | > 80 µM | 20 to 50 µM | > 80 µM | > 80 µM |
| CCCN(CC)C(=O)c1ncn2c(=O)n(CCF)nnc12 [Compound I-18, N-ethyl-3-(2-fluoroethyl)-4-oxo-N-propyl-3H,4H-imidazo[4,3-d][1,2,3,5]tetrazine-8-carboxamide] | > 80 µM | 20 to 50 µM | > 80 µM | > 80 µM |
| [2H]C([2H])([2H])NC(=O)c1ncn2c(=O)n(CCF)nnc12 [Compound I-19, 3-(2-fluoroethyl)-N-(D3)methyl-4-oxo-3H,4H-imidazo[4,3-d][1,2,3,5]tetrazine-8-carboxamide] | 50 to 80 µM | < 10 µM | > 80 µM | > 80 µM |
| [2H]C([2H])([2H])N(Cc1ccccc1)C(=O)c1ncn2c(=O)n(CCF)nnc12 [Compound I-20, N-benzyl-3-(2-fluoroethyl)-N-(2H3)methyl-4-oxo-3H,4H-imidazo[4,3-][1,2,3,5]tetrazine-8-carboxamide] | 50 to 80 µM | < 10 µM | > 80 µM | > 80 µM |
